Here are results for 28 compounds from patent US7786145B2, “Cyanoguanidine-based azole compounds useful as malonyl-CoA decarboxylase inhibitors” (Chugai Seiyaku Kabushiki Kaisha, priority 2003, dated 2010).

For orientation: Ki means the equilibrium dissociation constant of an inhibitor or competing ligand from its target. In general, IC50 refers to the concentration that gives 50% inhibition.

Each structure is given as a SMILES string.

The target in assay [1] is T1, hMCD (malonyl-CoA decarboxylase) (Homo sapiens, UniProt O95822).
T1 sequence (O95822 40-493): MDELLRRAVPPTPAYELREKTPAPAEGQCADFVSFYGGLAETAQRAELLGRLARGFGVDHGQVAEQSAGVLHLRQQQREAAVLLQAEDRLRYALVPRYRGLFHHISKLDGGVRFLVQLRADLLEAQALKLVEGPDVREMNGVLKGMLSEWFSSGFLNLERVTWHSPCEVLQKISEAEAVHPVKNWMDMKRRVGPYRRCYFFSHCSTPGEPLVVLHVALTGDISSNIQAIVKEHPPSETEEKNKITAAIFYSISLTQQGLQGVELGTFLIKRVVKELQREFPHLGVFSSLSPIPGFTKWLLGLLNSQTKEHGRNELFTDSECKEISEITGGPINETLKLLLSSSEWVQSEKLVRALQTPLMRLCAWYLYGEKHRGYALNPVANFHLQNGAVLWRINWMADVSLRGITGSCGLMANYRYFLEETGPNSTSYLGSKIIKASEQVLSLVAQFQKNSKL
The experiment in a line: In Vitro MCD Inhibitory Assay. The format is biochemical. The procedure: In Vitro MCD Inhibitory Assay:
The conversion of […] was assayed using a modified protocol as previously described by Kim, Y. S. and Kolattukudy, P. E. in 1978 (Arch. Biochem. Biophys 190:585 (1978)). As shown in eq. 1-3, the establishment of the kinetic equilibrium between malate/NAD and oxaloacetate/NADH was catalyzed by malic dehydrogenase (eq. 2). […] The accumulation of NADH can be continuously followed by monitoring the increase of fluorescence emission at 460 nm on a fluorescence plate reader. The fluorescence plate reader was calibrated using the authentic acetyl-CoA from Sigma. For a typical 96-well plate assay, the increase in the fluorescence emission (λex=360 nm, λem=460 nm, for NADH) in each well was used to calculate the initial velocity of hMCD. Each 50 μL assay contained 10 mM phosphate buffered saline (Sigma), pH 7.4, 0.05% Tween-20, 25 mM K2HPO4—KH2PO4 (Sigma), 2 mM Malate (Sigma), 2 mM NAD (Boehringer Mannheim), 0.786 units of MD (Roche Chemicals), 0.028 unit of CS (Roche Chemicals), 5-10 nM hMCD, and varying amounts of MCA substrate. Assays were initiated by the addition of MCA, and the rates were corrected for the background rate determined in the absence of hMCD.

For assay [2], the system named is Isolated Working Rat Hearts. The experiment in a line: Glucose oxidation in isolated working rat hearts. Set-up: unit not given here. Conditions: DMSO control. How it is done:
Isolated Working Rat Heart Assay Protocol
Isolated working hearts from male Sprague-Dawley rats (300-350 g) are subjected to a 60-minute aerobic perfusion period. The working hearts are perfused with 95% O2, 5% CO2 with a modified Krebs-Henseleit solution containing 5 mM glucose; 100 μU/mL insulin; 3% fatty acid-free BSA; 2.5 mM free Ca^2+, and 0.4 to 1.2 mmol/L palmitate (Kantor et al., Circulation Research 86:580-588(2000)). The test compound is added 5 minutes before the perfusion period. DMSO (0.05%) is used as control.
Measurement of Glucose Oxidation Rates
Samples were taken at 10-minute intervals for measurements of experimental parameters. Glucose oxidation rates are determined by the quantitative collection of ^14CO2 produced by hearts perfused with buffer containing [U14]-Glucose (R. Barr and G. Lopaschuk, in “Measurement of cardiovascular function”, McNeill, J. H. ed., Chapter 2, CRC press, New York (1997)). After the perfusion, the ^14CO2 from the perfusae is subsequently released by injecting 1 mL of perfusate into sealed test tube containing 1 mL of 9N H2SO4. The tube was sealed with a rubber stopper attached to a scintillation vial containing a piece of filter papers saturated with 300 μl of hyamine hydroxide. The scintillation vials with filter papers were then removed and Ecolite Scintillation Fluid added. Samples were counted by standard procedures as described above. Average rates of glucose oxidation for each phase of perfusion are expressed as μmol/min/g dry wt as described above.
Rates of fatty acid oxidation are determined using the same method as described above for glucose oxidation rate measurement using [^14C]palmitate or by the quantitative collection of ^3H2O produced by hearts perfused with buffer containing [5-^3H]palmitate (R. Barr and G. Lopaschuk, in “Measurement of cardiovascular function”, McNeill, J. H. ed., Chapter 2, CRC press, New York (1997)). ^3H2O was separated from [5-^3H]palmitate by treating 0.5 mL buffer samples with 1.88 mL of a mixture of chloroform/methanol (1:2 v:v) and then adding 0.625 mL of chloroform and 0.625 mL of a 2 M KCl/HCl solution. The sample is centrifuged for 10 min and aqueous phase was removed and treated with a mixture of 1 mL of chloroform, 1 mL of methanol and 0.9 mL KCl/HCl with a ration of 1:1:0.9. The aqueous layer was then counted for total ^3H2O determination. […] Average rates of fatty acid oxidation for each phase of perfusion are expressed as nmol/min/g dry wt after taking consideration the dilution factor. Active compounds are characterized by an increase in glucose oxidation and/or decrease in fatty acid oxidation as compared to the control experiments (DMSO). The compounds that caused statistically significant increases in glucose oxidation and/or decrease in fatty acid oxidation are considered to be active. Statistical significance was calculated using the Student's t test for paired or unpaired samples, as appropriate. The results with P<0.05 are considered to be statistically significant.

The next assay concerns breast carcinoma cells. Conditions: cited from earlier work.
Another assay deals with CPT-I liver isoform. The note with it: liver isoform of CPT-I; read-out: IC50 of malonyl-CoA inhibition; cited from earlier work.
A further assay relates to CPT-I muscle isoform. The note with it: muscle isoform of CPT-I; read-out: IC50 of malonyl-CoA inhibition; cited from earlier work.

As for `CCOc1ccc(NC(=NC#N)Nc2ccc3nc(S)sc3c2)cc1` [CBM-000302049], affinity in assay [1] (Table 1, MCD inhibition) was put at a Ki of 448 nM. On to `CCN(C(=NC#N)Nc1ccc(C(N)=O)cc1)c1ccc2nc(S)sc2c1` [CBM-000302189], for which the Ki in assay [1] (Table 1, MCD inhibition) was 2.8 nM; in assay [1] (Table 2, MCD inhibition), 2.8 nM. In addition, the GOX in assay [2] was determined as 96. As for `CC(C)CN(C(=NC#N)Nc1ccc(C(F)(F)F)cc1)c1ccc2nc(S)sc2c1` [CBM-000302076], in assay [1] (Table 1, MCD inhibition), the affinity, expressed as Ki, was 82.4 nM. As for `CCCN(C(=NC#N)Nc1ccc(C(F)(F)F)cc1)c1ccc2nc(S)sc2c1` [CBM-000302075], the inhibition constant (Ki) was 3.5 nM in assay [1] (Table 1, MCD inhibition) and 3.5 nM in assay [1] (Table 2, MCD inhibition). This compound had a GOX in assay [2] of 230. Compound `CCCCN(/C(=N/C#N)Nc1cccnc1)c1ccc2nc(S)sc2c1` [CBM-000302113] returned an inhibition constant Ki in assay [1] (Table 1, MCD inhibition) of 110 nM. In assay [1] (Table 1, MCD inhibition), `CCCN(C(=NC#N)Nc1ccc(C(=O)O)cc1)c1ccc2nc(S)sc2c1` [CBM-000302112] yielded a Ki of 1.5 nM.

For the compound `CCCCN(C(=NC#N)Nc1cccc(C(F)(F)F)c1)c1ccc2nc(S)sc2c1` [CBM-000302114], the Ki in assay [1] (Table 1, MCD inhibition) is 210 nM. Consider `CCCCCCCCCCCCCCOc1ccc(C(=O)O)o1` [TOFA, 5-(tetradecyloxy)-2-furoic acid], for which the malonyl-CoA level in the assay on breast carcinoma cells was 60 % of the control.

As to `N#C/N=C(\Nc1ccc(OC(F)(F)F)cc1)Nc1ccc2nc(S)sc2c1` [CBM-000302047, N-cyano-N′-(2-mercapto-benzothiazol-6-yl)-N″-(4-trifluoromethoxy-phenyl)guanidine], the Ki in assay [1] (Table 1, MCD inhibition) was 242 nM. As for `CCN(C(=NC#N)NCc1ccc(C(F)(F)F)cc1)c1ccc2nc(S)sc2c1` [CBM-000302290], the inhibition constant (Ki) in assay [1] (Table 1, MCD inhibition) came out at 82.4 nM. For `CCCN(C(=NC#N)Nc1ccc(OC(F)(F)F)cc1)c1ccc2nc(S)sc2c1` [CBM-000302052], the Ki in assay [1] (Table 1, MCD inhibition) stood at 67.1 nM; in assay [1] (Table 2, MCD inhibition), 67.1 nM. The GOX in assay [2] worked out at 131. On to `COc1ccc(NC(=NC#N)N(CC(C)C)c2ccc3nc(S)sc3c2)cc1` [CBM-000302064], for which affinity in assay [1] (Table 1, MCD inhibition) was put at a Ki of 7.1 nM. As to `CC(C)(COP(=O)(O)OP(=O)(O)OC[C@H]1O[C@@H](n2cnc3c(N)ncnc32)[C@H](O)[C@@H]1OP(=O)(O)O)[C@@H](O)C(=O)NCCC(=O)NCCSC(=O)CC(=O)O` [malonyl-CoA], the figures for the 50% inhibitory concentration (IC50) in the assay with CPT-I liver isoform and in the assay on CPT-I muscle isoform were 2500 nM and 30 nM, respectively.

In assay [1] (Table 1, MCD inhibition), `COc1ccc(NC(=NC#N)Nc2ccc3nc(S)sc3c2)cc1` [CBM-000302018] yielded a Ki of 133 nM. Take `COC(=O)c1ccc(NC(=NC#N)N(CC(C)C)c2ccc3nc(S)sc3c2)cc1` [CBM-000302073]: in assay [1] (Table 1, MCD inhibition), the Ki was 4.7 nM. Compound `CCCCOc1ccc(NC(=NC#N)Nc2ccc3nc(S)sc3c2)cc1` [CBM-000302048] yielded a Ki in assay [1] (Table 1, MCD inhibition) of 35.1 nM.

`CCN(C(=NC#N)Nc1ccc(C(=O)NCC(C)C)cc1)c1ccc2nc(S)sc2c1` [CBM-000302243] returned a Ki in assay [1] (Table 1, MCD inhibition) of 24.2 nM. Still for that read-out and setting: to `CC(C)N(/C(=N/C#N)Oc1ccccc1)c1ccc2nc(S)sc2c1` [CBM-000302339, 3-Cyano-1-isopropyl-1-(2-mercapto-benzothiazol-6-yl)-2-phenyl-isourea] belongs 5.9 nM.

In turn, `CC(C)CN(C(=NC#N)Nc1ccc(OC(F)(F)F)cc1)c1ccc2nc(S)sc2c1` [CBM-000302065] yielded an inhibitory constant (Ki) in assay [1] (Table 1, MCD inhibition) of 22.5 nM. The same measure, in the same setting: to `CCCN(/C(=N/C#N)Nc1ccccc1)c1ccc2nc(S)sc2c1` [CBM-000302051] belongs 5.6 nM; to `CC(C)CN(C(=NC#N)Nc1ccc(C(=O)O)cc1)c1ccc2nc(S)sc2c1` [CBM-000302088], 0.3 nM.

For the compound `CCN(/C(=N/C#N)Nc1ccc(C(F)(F)F)cc1)c1ccc2nc(S)sc2c1` [CBM-000302107, N-cyano-N′-ethyl-N′-(2-mercapto-benzothiazol-6-yl)-N″-(4-trifluoromethyl-phenyl)guanidine], the Ki in assay [1] (Table 1, MCD inhibition) stood at 1.7 nM; in assay [1] (Table 2, MCD inhibition), 1.7 nM. Also, the GOX in assay [2] was 290. In the case of `CC(C)CN(C(=NC#N)Nc1cccc(C(F)(F)F)c1)c1ccc2nc(S)sc2c1` [CBM-000302115], in assay [1] (Table 1, MCD inhibition), the Ki turned out to be 320 nM.

Regarding `CCCN(C(=NC#N)Nc1ccc(OC)cc1)c1ccc2nc(S)sc2c1` [CBM-000302050], the affinity in assay [1] (Table 1, MCD inhibition) corresponds to a Ki of 15.2 nM.

In turn, `CCCN(/C(=N/C#N)Nc1ccccc1)c1ccc2nc(S)sc2c1` [CBM-000302043] displayed a Ki in assay [1] (Table 1, MCD inhibition) of 7.2 nM. Take `CN(C(=NC#N)Nc1ccc(C(F)(F)F)cc1)c1ccc2nc(S)sc2c1` [CBM-000302167]: the Ki in assay [1] (Table 1, MCD inhibition) was determined as 2 nM; in assay [1] (Table 2, MCD inhibition), 2 nM. Further, the GOX in assay [2] was 239. Compound `CCN(C(=NC#N)NCc1ccc(OC(F)(F)F)cc1)c1ccc2nc(S)sc2c1` [CBM-000302291] displayed an inhibition constant Ki in assay [1] (Table 1, MCD inhibition) of 49.5 nM. In the case of `CCCCNC(=O)c1ccc(NC(=NC#N)N(CC)c2ccc3nc(S)sc3c2)cc1` [CBM-000302244], the inhibition constant (Ki) in assay [1] (Table 1, MCD inhibition) was found to be 5.6 nM; in assay [1] (Table 2, MCD inhibition), 5.6 nM. In assay [2], this compound gave a GOX of 152.
